How the values were obtained:
[1] = tested on: Blumeria graminis f. sp. tritici (Erysiphe graminis f. sp. tritici); assay: Blumeria graminis f. sp. tritici / wheat / leaf disc preventative (powdery mildew on wheat); assay type: in vivo; details: foliar, wheat leaf segments, compared to untreated control
Method: Example B4: Blumeria Graminis f. sp. Tritici (Erysiphe Graminis f. sp. Tritici)/Wheat/Leaf Disc Preventative (Powdery Mildew on Wheat) Wheat leaf segments cv. Kanzler are placed on agar in a multiwell plate (24-well format) and sprayed with the formulated test compound diluted in water. The leaf disks are inoculated by shaking powdery mildew infected plants above the test plates 1 day after application. The inoculated leaf disks are incubated at 20° C. and 60% rh under a light regime of 24 h darkness followed by 12 h light/12 h darkness in a climate chamber and the activity of a compound is assessed as percent disease control compared to untreated when an appropriate level of disease damage appears on untreated check leaf segments (6-8 days after application). […].23.

[2] = tested on: Monographella nivalis (Microdochium nivale); assay: Monographella nivalis (Microdochium nivale) / liquid culture (foot rot cereals); assay type: cell-based; details: growth inhibition photometrically 4-5 days after application, read-out: control of Monographella nivalis
Method: (§1) Example B7: Monographella Nivalis (Microdochium Nivale)/Liquid Culture (Foot Rot Cereals) Conidia of the fungus from cryogenic storage are directly mixed into nutrient broth (PDB potato dextrose broth). After placing a (DMSO) solution of test compound into a microtiter plate (96-well format), the nutrient broth containing the fungal spores is added. The test plates are incubated at 24° C. and the inhibition of growth is determined photometrically 4-5 days after application. […] […].23.

[3] = tested on: Puccinia recondita f. sp. tritici; assay: Puccinia recondita f. sp. tritici / wheat / leaf disc preventative (brown rust); assay type: in vivo; details: foliar, wheat leaf segments, preventative (inoculated 1 day after application), compared to untreated control, read-out: control of Puccinia recondite f. sp. tritici
Method: Example B12: Puccinia Recondita f. sp. Tritici/Wheat/Leaf Disc Preventative (Brown Rust) Wheat leaf segments cv. Kanzler are placed on agar in multiwell plates (24-well format) and sprayed with the formulated test compound diluted in water. The leaf disks are inoculated with a spore suspension of the fungus 1 day after application. The inoculated leaf segments are incubated at 19° C. and 75% rh under a light regime of 12 h light/12 h darkness in a climate cabinet and the activity of a compound is assessed as percent disease control compared to untreated when an appropriate level of disease damage appears in untreated check leaf segments (7-9 days after application). […] […].23.

[4] = tested on: Glomerella lagenarium (Colletotrichum lagenarium); assay: Glomerella lagenarium (Colletotrichum lagenarium) / liquid culture (anthracnose); assay type: cell-based; details: Colletotrichum orbiculare, growth inhibition photometrically 3-4 days after application, read-out: control of Glomerella lagenarium
Method: Example B3: Glomerella Lagenarium (Colletotrichum Lagenarium)/Liquid Culture (Anthracnose) Conidia of the fungus from cryogenic storage are directly mixed into nutrient broth (PDB potato dextrose broth). After placing a (DMSO) solution of test compound into a microtiter plate (96-well format), the nutrient broth containing the fungal spores is added. The test plates are incubated at 24° C. and the inhibition of growth is measured photometrically 3-4 days after application.

[5] = tested on: Mycosphaerella arachidis (Cercospora arachidicola); assay: Mycosphaerella arachidis (Cercospora arachidicola) / liquid culture (early leaf spot); assay type: cell-based; details: growth inhibition photometrically 4-5 days after application, read-out: control of Mycosphaerella arachidis
Method: as §1, with “B8: Mycosphaerella Arachidis (Cercospora Arachidicola)/Liquid” for “B7: Monographella Nivalis (Microdochium Nivale)/Liquid”, “(Early Leaf Spot)” for “(Foot Rot Cereals)”

[6] = tested on: Mycosphaerella graminicola (Septoria tritici); assay: Mycosphaerella graminicola (Septoria tritici) / liquid culture (Septoria blotch); assay type: cell-based; details: Zymoseptoria tritici, growth inhibition photometrically 4-5 days after application, read-out: control of Mycosphaerella graminicola
Method: as §1, with “B16: Mycosphaerella Graminicola (Septoria Tritici)/Liquid” for “B7: Monographella Nivalis (Microdochium Nivale)/Liquid”, “(Septoria Blotch)” for “(Foot Rot Cereals)”

[7] = tested on: Magnaporthe grisea (Pyricularia oryzae); assay: whole plant or invertebrate; assay type: in vivo; details: foliar, read-out: control of Magnaporthe grisea
[8] = tested on: Pyrenophora teres; assay: Pyrenophora teres / barley / leaf disc preventative (net blotch); assay type: in vivo; details: foliar, barley leaf segments, compared to untreated control
Method: Example B14: Pyrenophora Teres/Barley/Leaf Disc Preventative (Net Blotch) Barley leaf segments cv. Hasso are placed on agar in a multiwell plate (24-well format) and sprayed with the formulated test compound diluted in water. The leaf […] inoculated with a spore suspension of the fungus 2 days after application. The inoculated leaf segments are incubated at 20° C. and 65% rh under a light regime of 12 h light/12 h darkness in a climate cabinet and the activity of a compound is assessed as disease control compared to untreated when an appropriate level of disease damage appears in untreated check leaf segments (5-7 days after application). […] […].23.

[9] = Photostability, thin-film irradiation (Atlas Suntest); assay type: physicochemical; details: thin film on glass, filtered xenon lamp 750 W/m2; time for first 50% loss
Method: Throughout the following description, LogP means logarithm of the partition coefficient, ppm means parts per million, and T50 represents the half-time of the compound under irradiation conditions.
Photostability tests were carried out by irradiation of thin-film deposits of compounds and 20 formulations on glass surfaces, using a filtered xenon lamp system (Atlas Suntest) which reproduces the spectrum and intensity of sunlight. The spectral output power of the Suntest was set to 750 W/m2, which is the typical daily maximum irradiance level at noon (UK, midsummer).
Test compounds were typically dissolved in HPLC grade methanol to give 1 g/L stock solutions. Alternatively, formulated compounds were suspended in water at the same concentration. 2 μL droplets of test solutions were spotted onto microscope cover slips in a 3D printed holder, allowed to dry then irradiated in the Suntest for varying times. […] Solutions were analysed by reverse phase HPLC, typically using a Waters UPLC system with Photodiode Array (PDA) and Waters columns (BEH C18, 100×2.1mm×1.7 μm) using mixed aqueous:acetonitrile mobile phase, acidifed with 0.2% formic acid. Peak detection was at the optimum wavelength for each candidate compound and PDA peak areas were used for quantification. […]

[10] = physchem; details: pH 7
[11] = tested on: Fusarium culmorum; assay type: in vivo; details: 200 ppm; wheat spikelets, preventative; compared to untreated control
[12] = assay type: physicochemical; details: for Solubility in water: pH 7.2
Method: Saturated solutions of test compounds were prepared in either aqueous buffer solutions (10 mM mixed phosphate, pH 7.20) or in heptane. Typically 1 mg of test compound in a 2 dram vial with 1 mL of buffer or heptane was left overnight (20 hours) on a roller shaker after an initial 20 minute period in a sonic bath. Saturated samples were then filtered through Millex-HV 0.45 micron syringe driven filters (aqueous or non-aqueous version dependent on solvent). […] Protocol variations included pre-saturation of the filters for compounds expected to have very low solubility, and centrifugation of the saturated samples for oils.

SMILES | pest or weed control at 200 ppm [1] | inhibition of growth at 20 ppm [2] | pest or weed control at 200 ppm [3] | inhibition of growth at 20 ppm [4] | melting point | inhibition of growth at 20 ppm [5] | inhibition of growth at 20 ppm [6] | pest or weed control at 200 ppm [7] | pest or weed control at 200 ppm [8] | Photostability T50 [9] | chromatographic logP [10] | control of Fusarium culmorum [11] | Solubility in heptane [12] | Solubility in water [12]
Cc1sc(N(C#N)c2cncc(F)c2)nc1C(=O)NC1CCC1(C)C (stereo not drawn) [I.b.18, 2-[cyano-(5-fluoro-3-pyridyl)amino]-N-(2,2-dimethylcyclobutyl)-5-methyl-thiazole-4-carboxamide] | ≥ 80% | ≥ 80% | ≥ 80% | ≥ 80% | 150 to 152 °C | ≥ 80% | ≥ 80% | ≥ 80% | – | – | – | – | – | –
Cc1sc(N(C#N)c2cc(F)nc(F)c2)nc1C(=O)NC1CCC1(C)C (stereo not drawn) [I.b.23, 2-[cyano-(2,6-difluoro-4-pyridyl)amino]-N-(2,2-dimethylcyclobutyl)-5-methyl-thiazole-4-carboxamide] | ≥ 80% | ≥ 80% | – | ≥ 80% | – | ≥ 80% | ≥ 80% | ≥ 80% | ≥ 80% | 11 h | 3.76 | at least 80% | 699 ppm | 2.5 ppm
Cc1sc(Nc2cc(F)nc(F)c2)nc1C(=O)NC1CCC1(C)C (stereo not drawn) [Compound E-0, 2-[(2,6-difluoro-4-pyridyl)amino]-N-(2,2-dimethylcyclobutyl)-5-methyl-thiazole-4-carboxamide, reference compound] | – | – | – | – | – | – | – | – | – | 3.5 h | 5.08 | – | 4.1 ppm | 0.70 ppm

Reference: US20220017501A1, “MICROBIOCIDAL THIAZOLE DERIVATIVES” (SYNGENTA PARTICIPATIONS AG, priority 2018, published 2022)
